From patent US10077243B2, “Compounds for treating disorders mediated by metabotropic glutamate receptor 5, and methods of use thereof” (Sunovion Pharmaceuticals Inc., priority 2009, dated 2018)

biological target: T1, human mGluR5 (Homo sapiens, UniProt P41594); experiment: In vitro cell-based FLIPR calcium assay for positive modulation of the activation of mGluR5 by glutamate (PAM EC50); settings: HEK293/GLAST cells expressing recombinant human mGluR5; FLIPR calcium signal; glutamate added at its EC20; read-out: mGluR5 PAM EC50
T1 construct: expressed in transfected cells; host or cells: HEK293 cells stably expressing rat GLAST (EAAT1), stably transfected with pcDNAzeo3.1 carrying synthetic human mGluR5 DNA; zeocin-selected single clones
Outline: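 HEK293/GLAST cells stably expressing mGluR5 were loaded with calcium-sensitive dye (25 °C, 45–60 min) in HBSS/20 mM HEPES. Test compounds were assayed in buffer containing glutamate at that day's EC20, with FLIPR fluorescence recorded. Controls contained 0.3% DMSO without compound.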

T1 sequence (P41594 21-1212): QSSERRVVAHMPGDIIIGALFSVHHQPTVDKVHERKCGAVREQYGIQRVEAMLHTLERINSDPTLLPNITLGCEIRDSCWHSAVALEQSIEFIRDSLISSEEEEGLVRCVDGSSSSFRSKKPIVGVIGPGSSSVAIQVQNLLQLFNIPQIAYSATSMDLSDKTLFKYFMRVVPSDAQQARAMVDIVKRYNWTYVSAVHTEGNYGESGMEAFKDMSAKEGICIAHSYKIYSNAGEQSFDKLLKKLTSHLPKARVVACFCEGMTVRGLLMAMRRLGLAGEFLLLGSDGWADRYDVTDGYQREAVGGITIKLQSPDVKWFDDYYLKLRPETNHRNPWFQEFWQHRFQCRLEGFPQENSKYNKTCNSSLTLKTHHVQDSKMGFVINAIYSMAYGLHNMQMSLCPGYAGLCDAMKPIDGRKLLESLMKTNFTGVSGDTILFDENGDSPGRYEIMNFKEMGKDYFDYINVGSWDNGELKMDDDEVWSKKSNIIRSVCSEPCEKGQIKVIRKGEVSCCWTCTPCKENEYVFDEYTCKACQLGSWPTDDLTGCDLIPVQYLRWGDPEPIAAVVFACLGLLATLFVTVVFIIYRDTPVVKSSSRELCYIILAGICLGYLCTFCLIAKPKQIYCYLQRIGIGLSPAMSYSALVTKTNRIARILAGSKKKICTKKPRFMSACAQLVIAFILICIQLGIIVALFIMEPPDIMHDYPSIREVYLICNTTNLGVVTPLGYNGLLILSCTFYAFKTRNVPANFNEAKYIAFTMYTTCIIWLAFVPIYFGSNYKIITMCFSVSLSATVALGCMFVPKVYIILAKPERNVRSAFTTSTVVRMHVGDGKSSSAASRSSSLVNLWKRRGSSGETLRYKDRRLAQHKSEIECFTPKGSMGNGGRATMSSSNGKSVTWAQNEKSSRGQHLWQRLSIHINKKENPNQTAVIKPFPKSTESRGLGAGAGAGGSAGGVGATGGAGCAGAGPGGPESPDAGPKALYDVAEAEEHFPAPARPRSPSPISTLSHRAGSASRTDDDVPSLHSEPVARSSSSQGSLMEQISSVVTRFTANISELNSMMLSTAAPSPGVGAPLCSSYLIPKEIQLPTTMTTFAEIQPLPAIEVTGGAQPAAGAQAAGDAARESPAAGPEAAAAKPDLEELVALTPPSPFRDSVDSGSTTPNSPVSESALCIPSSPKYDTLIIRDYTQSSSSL

EC50 [µM] | SMILES
< 0.01 | COCCc1nc2cc(C#Cc3cccc(F)c3)ccc2c(=O)n1C [Example 2.1, 7-((3-fluorophenyl)ethynyl)-2-(2-methoxyethyl)-3-methylquinazolin-4(3H)-one]
0.1 to 0.3 | O=c1c2ccc(C#Cc3cccc(F)c3)cc2nc2n1CCCC2Cc1ccccc1 (stereo not shown) [Example 4.9, 6-benzyl-3-((3-fluorophenyl)ethynyl)-8,9-dihydro-6H-pyrido[2,1-b]quinazolin-11(7H)-one]
0.03 to 0.1 | CN(C)Cc1nc2cc(C#Cc3cccc(F)c3)ccc2c(=O)n1C [Example 2.7, 2-((dimethylamino)methyl)-7-((3-fluorophenyl)ethynyl)-3-methylquinazolin-4(3H)-one]
0.1 to 0.3 | CC(C)(O)c1cnc2cc(C#Cc3cccc(F)c3)ccn2c1=O [Example 13.18, 8-((3-fluorophenyl)ethynyl)-3-(2-hydroxypropan-2-yl)-4H-pyrido[1,2-a]pyrimidin-4-one]
0.3 to 1 | O=c1c2ccc(C#Cc3ccc(Cl)cc3)cc2nc2n1CCC1(CC2)OCCO1 [Example 7.09]
0.03 to 0.1 | O=c1c2ccc(C#Cc3cccc(F)c3)cc2nc2n1CC(O)CC2 (stereo not shown) [Example 4.23, 3-((3-fluorophenyl)ethynyl)-8-hydroxy-8,9-dihydro-6H-pyrido[2,1-b]quinazolin-11(7H)-one]
< 0.01 | O=c1c2ccc(C#Cc3cccc(F)c3)cc2nc2n1CCCC2 [Example 4.4]
0.03 to 0.1 | O=c1c2ccc(C#Cc3cccc(F)c3)cc2ncn1CC1CC1 [Example 1.8, 3-(cyclopropylmethyl)-7-((3-fluorophenyl)ethynyl) quinazolin-4(3H)-one]
0.1 to 0.3 | CC1(C)Cn2c(nc3cc(C#Cc4ccccn4)ccc3c2=O)CN1 [Example 5.17, 3,3-dimethyl-9-(pyridin-2-ylethynyl)-3,4-dihydro-1H-pyrazino[2,1-b]quinazolin-6(2H)-one]
0.3 to 1 | O=c1c2c(nc3cc(C#Cc4ccccn4)ccn13)C[C@@H]1CCCN1C2 [Example 15.7, (S)-10-(pyridin-2-ylethynyl)-2,3,13,13a-tetrahydro-1H-pyrido[1′,2′:1,2]pyrimido[5,4-f]indolizin-6(5H)-one]
0.03 to 0.1 | COCC1CCc2nc3cc(C#Cc4ccccn4)ccc3c(=O)n2C1 (single isomer, unassigned) [4.34a/4.34b slower moving enantiomer (fraction 2), 8-(methoxymethyl)-3-(pyridin-2-ylethynyl)-8,9-dihydro-6H-pyrido[2,1-b]quinazolin-11(7H)-one]
0.03 to 0.1 | N#Cc1cccc(C#Cc2ccc3c(=O)n4c(nc3c2)CCC2(CC4)OCCO2)c1 [Example 7.38]
0.03 to 0.1 | COCCn1cnc2cc(C#Cc3cccc(F)c3)cnc2c1=O [Example 11.1, 7-((3-fluorophenyl)ethynyl)-3-(2-methoxyethyl)pyrido[3,2-d]pyrimidin-4(3H)-one]
0.01 to 0.03 | N#Cc1cccc(C#Cc2ccc3c(=O)n4c(nc3c2)CCCCC4)n1 [Example 6.45]
0.3 to 1 | N#Cc1cc(C#Cc2ccc3c(=O)n4c(nc3c2)CCC2(CC4)OCCO2)ccc1F [Example 7.19]
0.03 to 0.1 | O=c1c2ccc(C#Cc3ccc(F)cc3)cc2ncn1C1CCCC1 [Example 1.10, 3-cyclopentyl-7-((4-fluorophenyl)ethynyl)quinazolin-4(3H)-one]
0.03 to 0.1 | CCOCc1cnc2cc(C#Cc3cccc(F)c3)ccn2c1=O [Example 13.8, 3-(ethoxymethyl)-8-((3-fluorophenyl)ethynyl)-4H-pyrido[1,2-a]pyrimidin-4-one]
0.03 to 0.1 | CC1CN(C)Cc2nc3cc(C#Cc4ccccn4)ccc3c(=O)n21 (stereo not shown) [Example 5.15, 2,4-dimethyl-9-(pyridin-2-ylethynyl)-3,4-dihydro-1H-pyrazino[2,1-b]quinazolin-6(2H)-one]
< 0.01 | Cc1cnc(NC(=O)c2ccn3c(=O)c4c(nc3c2)CCCCCC4)s1 [Example 28.1, N-(5-methylthiazol-2-yl)-12-oxo-7,8,9,10,11,12-hexahydro-6H-cycloocta[d]pyrido[1,2-a]pyrimidine-3-carboxamide]
